For four compounds, IP results are on record in ChEMBL document CHEMBL3585300, “Inhibition of Cathepsin K: A Novel and Promising Treatment for Osteoporosis” (ACS Med Chem Lett, 2015).

Assay [1] concerns the target T1, Cathepsin F (Homo sapiens) (UniProt Q9UBX1).
T1 sequence (whole entry): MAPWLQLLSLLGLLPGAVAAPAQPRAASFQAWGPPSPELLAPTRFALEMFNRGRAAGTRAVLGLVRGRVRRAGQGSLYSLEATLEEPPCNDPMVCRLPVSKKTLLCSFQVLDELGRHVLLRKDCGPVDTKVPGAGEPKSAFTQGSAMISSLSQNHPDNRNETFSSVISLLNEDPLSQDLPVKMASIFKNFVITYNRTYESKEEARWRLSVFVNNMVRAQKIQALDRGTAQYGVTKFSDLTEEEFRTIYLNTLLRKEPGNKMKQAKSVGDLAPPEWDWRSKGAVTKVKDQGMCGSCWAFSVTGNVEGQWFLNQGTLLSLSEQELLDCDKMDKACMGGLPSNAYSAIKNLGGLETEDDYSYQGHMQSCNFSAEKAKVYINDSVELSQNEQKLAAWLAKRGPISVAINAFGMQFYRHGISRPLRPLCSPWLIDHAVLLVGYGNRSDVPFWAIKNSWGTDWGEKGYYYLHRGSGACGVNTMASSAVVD
Put plainly: Inhibition of human cathepsin F incubated for 15 mins using Z-Phe-Arg-AMC substrate by spectrofluorometry.

Assay [2] concerns the target T2, Cathepsin K (Homo sapiens) (UniProt P43235).
T2 sequence (whole entry): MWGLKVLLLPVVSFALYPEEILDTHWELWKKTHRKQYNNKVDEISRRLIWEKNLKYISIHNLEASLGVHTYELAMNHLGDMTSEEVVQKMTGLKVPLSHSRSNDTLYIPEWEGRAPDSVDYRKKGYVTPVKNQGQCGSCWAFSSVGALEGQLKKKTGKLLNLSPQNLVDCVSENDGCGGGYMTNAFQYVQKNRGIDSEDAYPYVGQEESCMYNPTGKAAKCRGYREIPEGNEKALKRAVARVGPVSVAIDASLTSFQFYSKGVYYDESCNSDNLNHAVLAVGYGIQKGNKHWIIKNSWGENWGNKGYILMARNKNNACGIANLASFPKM
Put plainly: Inhibition of human cathepsin K incubated for 15 mins using Z-Leu-Arg-AMC substrate by spectrofluorometry.

The structures appear in SMILES notation.

On to `N#CC1(NC(=O)[C@@H]2CCCC[C@H]2c2nc(-c3cccc(C4CCOCC4)c3)sc2-c2ccc(N3CCS(=O)(=O)CC3)cc2)CC1`, for which the values for the IP in assay [1] and in assay [2] were 3330 nM and 1.7 nM, respectively.

With `C[C@@H](C#N)NC(=O)[C@@H]1C[C@@H](F)CC[C@H]1c1nc(C2(C(F)(F)F)CC2)sc1-c1ccc(N2CCS(=O)(=O)CC2)cc1`, the IP in assay [1] came out at 3140 nM; in assay [2] it was 2.8 nM.

On to `CC(C)(C)c1nc([C@@H]2CCCC[C@H]2C(=O)NCC#N)c(-c2ccc(N3CCS(=O)(=O)CC3)cc2)s1`, for which the IP is 851 nM in assay [1] and 0.7 nM in assay [2].

For the compound `N#CC1(NC(=O)[C@@H]2CCCC[C@H]2c2nc(C3CC(F)(F)C3)sc2-c2ccc(N3CCS(=O)(=O)CC3)cc2)CC1`, the IP in assay [1] came out at 1000 nM; in assay [2], 5.8 nM.
